Three compounds from BindingDB's records for doi:10.1021/acs.jmedchem.9b01183 (Univ. Lille, 2020) can be followed below.

The experiment is described as follows: Inhibition of STAT5b in mouse BaF3/FLT3-ITD cells assessed as reduction in cell proliferation.
What is called IC50 is the concentration that inhibits the measured activity by half. Regarding `O=C(O)c1nonc1NCn1cnnn1`, the concentration for half-maximal inhibition (IC50) stood at 153 µM.
In the case of `O=C(O)c1nonc1NCn1nnnc1Cc1ccccc1`, the IC50 worked out at 76 µM.
For the compound `COC(=O)c1nonc1NCn1cnnn1`, the IC50 came out at 25 µM.
